The source of these data is PMC6273899 (Molecules, 2016).

≈ marks a conversion by molar mass, not a printed value. Where “and” joins values, the source holds several entries; their conditions need not be identical. Equal values may be shown once. Read-outs that look alike come from different tables or passages of the source. Square brackets hold non-standard residues; d marks the D form. Ends that are not written are not given here. Peptide text beside a SMILES is read from it.

For data set [1], the system named is Candida albicans (NCPF 1467). The class given is cell-based. The protocol:
(§1) The antimicrobial activity was evaluated by minimal inhibitory concentration (MIC) and minimum bactericidal concentration (MBC) assays using broth microdilution methods and in vitro assays against reference strains of microorganisms; a Gram-positive bacterium, a Gram-negative bacterium, and a yeast, respectively, Staphylococcus aureus (NCTC 10788), Escherichia coli (NCTC 10418), and Candida albicans (NCPF 1467). Briefly, the reference strains were incubated in Muller-Hinton Broth (MHB) until logarithmic phase growth was achieved which was assessed by the optical density (OD) of the culture at 550 nm. The cultures were subjected to dilution to obtain 1 × 10^6 colony-forming units (cfu)/mL for bacteria or to 5 × 10^5 cfu/ml for the yeast. Serial peptide dilutions and cultures were loaded into a 96-well microtiter plate obtaining suspensions containing 1–512 mg/L tested peptides. After incubating at 37 °C for 24 h, MIC values were determined as the lowest concentration which produced a similar OD value to the negative control (medium only). Then 10 μL of inhibited culture from each well was subcultured on Muller-Hinton Agar (MHA) and incubated for 24 h. The MBC values were defined as the minimum concentration which effected no growth.

Data set [2] concerns Escherichia coli (NCTC 10418). It is filed as cell-based. The protocol: as §1
The subject of data set [3] is Staphylococcus aureus (NCTC 10788). The class given is cell-based. As to the method:
as §1

The subject of data set [4] is trypsin. Particulars: 1 mg trypsin with 1 mg peptide in 1 mL PBS, MALDI-TOF/MS.
Experimental: (§2) Two different media were used to appraise the stability and degradation sites of peptides, trypsin, and horse serum, respectively. For the trypsin assay, 1 mg of trypsin (Sigma-Aldrich) with 1 mg of peptide were incubated in 1 mL PBS for 72 h. Whilst for horse serum, the medium was prepared with 25% horse serum/RPMI medium (v/v) and incubated at 37 °C for 15 min. Peptide stock solution was added into the serum medium to obtain a solution having a final concentration of 1 mg/mL and test samples were kept at 37 °C for 72 h. At different time points, 20 μL samples were transferred into 100 μL of 0.25% (v/v) TFA/water which caused reaction termination. For the serum-digestion, samples were kept at 4 °C and centrifuged at 13,000 rpm for 15 min and the supernatants were then analysed by MALDI-TOF/MS.
The conditions of data set [5]: 25% horse serum/RPMI medium (v/v), 1 mg/mL peptide, 37 °C up to 72 h, MALDI-TOF/MS.
Experimental: as §2
The test system of data set [6] is defibrinated horse erythrocytes. Kind of data set: Haemolysis assay. The class given is cell-based. Particulars: 2% (v/v) horse erythrocytes in PBS, 1 to 512 mg/L peptide, 37 °C 120 min, OD 550 nm; 100% = 1% Triton X-100. The protocol: The haemolytic activity of peptides against defibrinated horse erythrocytes (TCS Biosciences Ltd., Botolph Claydon, Buckingham, UK) was determined by comparing the degree of lysis after incubating tested peptides with prewashed red cell suspensions for 2 h. A 2% suspension (v/v) was formed with prewashed defibrinated horse erythrocytes and sodium phosphate-buffered saline (PBS). Peptides were incubated with this 2% suspension in a final concentration range from 1 to 512 mg/L and all the samples were kept at a constant 37 °C for 120 min. Negative controls and positive controls were PBS alone and PBS containing Triton X-100 (Sigma-Aldrich, St. Louis, MO, USA), respectively. The sample supernatants were used to assess the extent of haemolysis by measuring the OD value at 550 nm.

A short description of data set [7]: 25% horse serum/RPMI medium (v/v). Particulars: 37 °C, up to 72 h.
Data set [8] concerns trypsin. Kind of data set: 1 mg of trypsin (Sigma-Aldrich) with 1 mg of peptide in 1 mL PBS. Particulars: up to 72 h.
Setting [9] is: 10 μL of inhibited culture subcultured on Muller-Hinton Agar, 24 h, minimum concentration with no growth.
Where [10] appears, read: broth microdilution, Muller-Hinton Broth, 5 × 10^5 cfu/ml, 1–512 mg/L peptide, 37 °C 24 h, OD read-out, NCPF 1467.
Setting [11] is: broth microdilution, Muller-Hinton Broth, 1 × 10^6 cfu/mL, 1–512 mg/L peptide, 37 °C 24 h, OD read-out, NCTC 10418.
Where [12] appears, read: broth microdilution, Muller-Hinton Broth, 1 × 10^6 cfu/mL, 1–512 mg/L peptide, 37 °C 24 h, OD read-out, NCTC 10788.

On to `CC[C@H](C)[C@H](NC(=O)[C@H](C)NC(=O)[C@@H](CCCCN)NC(=O)[C@@H]1CCCN1C(=O)[C@@H](NC(=O)[C@H](CC(C)C)NC(=O)[C@H](CO)NC(=O)[C@H](CC(C)C)NC(=O)[C@@H](N)Cc1ccccc1)[C@@H](C)CC)C(=O)N[C@H](CCCCN)C(=O)N[C@@H](C)C(=O)N[C@H](C(=O)NCC(=O)N[C@H](C(=O)N[C@H](CCCCN)C(=O)N[C@@H](C)C(=O)N[C@H](CCCCN)C(=O)N[C@H](CCCCN)C(=O)N[C@@H](Cc1ccccc1)C(N)=O)C(C)C)C(C)C` [PS-PT2a] (H-FLSLIP[dK]AI[dK]AVGV[dK]A[dK][dK]F-NH2), for which the “MBC C. albicans” value in data set [1] (setting [9]) came to 256 µg/mL (≈ 124 µM). In addition, the “MIC C. albicans” value in data set [1] (setting [10]) was 256 µg/mL (≈ 124 µM). Besides, the “MBC E. coli” value in data set [2] (setting [9]) is greater than 512 µg/mL. The “MIC E. coli” value in data set [2] (setting [11]) was greater than 512 µg/mL. Moreover, in data set [3] (setting [9]), the “MBC S. aureus” value was greater than 512 µg/mL. Besides, the “MIC S. aureus” value in data set [3] (setting [12]) is greater than 512 µg/mL. Moreover, in the data set on trypsin [4] (up to 72 h), the “Catabolites generated by incubation with trypsin (species detected, incl. intact 1–19)” value was 1–19 FLSLIPKAIKAVGVKAKKF and the “time stable in trypsin solution” value is recorded as no less than 48 h. The “stability in serum (in words)” value in data set [5] (pre-incubated 37 °C 15 min) is “relatively stable after 72 h”.

With `CC[C@H](C)[C@H](NC(=O)[C@H](C)NC(=O)[C@@H](CCCCN)NC(=O)[C@@H]1CCCN1C(=O)[C@@H](NC(=O)[C@H](CC(C)C)NC(=O)[C@H](CO)NC(=O)[C@H](CC(C)C)NC(=O)[C@@H](N)Cc1ccccc1)[C@@H](C)CC)C(=O)N[C@@H](CCCCN)C(=O)N[C@@H](C)C(=O)N[C@H](C(=O)NCC(=O)N[C@H](C(=O)N[C@@H](CCCCN)C(=O)N[C@@H](C)C(=O)N[C@@H](CCCCN)C(=O)N[C@@H](CCCCN)C(=O)N[C@@H](Cc1ccccc1)C(N)=O)C(C)C)C(C)C` [PS-PT2b] (H-FLSLIP[dK]AIKAVGVKAKKF-NH2), in data set [1] (setting [9]), the “MBC C. albicans” value is 64 µg/mL (≈ 31.1 µM). Also, in data set [1] (setting [10]), the “MIC C. albicans” value came out at 32 µg/mL (≈ 15.6 µM). Further, in data set [2] (setting [9]), the “MBC E. coli” value came to 256 µg/mL (≈ 124 µM). Moreover, the “MIC E. coli” value in data set [2] (setting [11]) amounted to 256 µg/mL (≈ 124 µM). Further, the “MBC S. aureus” value in data set [3] (setting [9]) turned out to be 512 µg/mL (≈ 249 µM). Moreover, in data set [3] (setting [12]), the “MIC S. aureus” value is 256 µg/mL (≈ 124 µM). For the same molecule, in the data set with trypsin [4] (up to 72 h), the “degradation by trypsin (in words)” value is “hydrolytically-degraded after a 30 s incubation”. The “scissile site with trypsin” value in the data set with trypsin [4] is “Lys^10-Ala^11”. Besides, in data set [5], the “Catabolites generated by incubation with serum (species detected, incl. intact 1–19)” value is 1–17 […] and 1–19 FLSLIPKAIKAVGVKAKKF; the “incubation time in serum after which fragments 1–15, 1–14 and 1–17 were observed” value was greater than 48 h. Further, the “stability in serum (in words)” value in data set [5] (pre-incubated 37 °C 15 min) is given as “strong stability”.

As to FLSLIPHAIKAVGVHAKHF-NH2 [PS-PT1], in data set [1] (NCPF 1467, 24 h), the “MBC C. albicans” value was found to be 256 µg/mL and the “MIC C. albicans” value amounted to 128 µg/mL. Further, in data set [2] (NCTC 10418, 24 h), the “MBC E. coli” value is greater than 512 µg/mL and the “MIC E. coli” value turned out to be 512 µg/mL. In addition, in data set [3] (NCTC 10788, 24 h), the “MBC S. aureus” value is 256 µg/mL and the “MIC S. aureus” value worked out at 128 µg/mL.

For the molecule FLSLIPHAINAVGVHAKHF-NH2 [PS-PT], in data set [1] (NCPF 1467, 24 h), the “MBC C. albicans” value was greater than 512 µg/mL and the “MIC C. albicans” value was 512 µg/mL. Also, in data set [2] (NCTC 10418, 24 h), the “MBC E. coli” value is greater than 512 µg/mL and the “MIC E. coli” value was greater than 512 µg/mL. Moreover, in data set [3] (NCTC 10788, 24 h), the “MBC S. aureus” value is greater than 512 µg/mL and the “MIC S. aureus” value was 512 µg/mL.

On to “FLSLIPKAIKAVGVKAKKF-NH2 [PS-PT2] [listing 1 of 2 here]”, for which the “MBC C. albicans” value in data set [1] (setting [9]) stood at 32 µg/mL. Besides, the “MIC C. albicans” value in data set [1] (setting [10]) was 16 µg/mL. Besides, the “MBC E. coli” value in data set [2] (setting [9]) was greater than 512 µg/mL. The “MIC E. coli” value in data set [2] (setting [11]) is 512 µg/mL. Besides, the “MBC S. aureus” value in data set [3] (setting [9]) is 64 µg/mL. The “MIC S. aureus” value in data set [3] (setting [12]) was found to be 64 µg/mL. Moreover, in data set [6], the “haemolytic effect (in words)” value is on record as “negligible haemolytic effects”. Moreover, the “time in which the original peptide was completely cleaved by trypsin” value in the data set on trypsin [4] (up to 72 h) is no more than 30 s. Further, the “scissile site with trypsin” value in the data set on trypsin [4] is reported as “Lys^7-Ala^8”. Also, the “time after which peptide was completely degraded in serum” value in data set [5] (pre-incubated 37 °C 15 min) is on record as no more than 30 min.

On to “FLSLIPKAIKAVGVKAKKF-NH2 [PS-PT2] [listing 2 of 2 here]”, for which, in data set [7], the cleaved bond result is listed as “Lys7-Ala8, major” and the fragment found is recorded as 1–16 fragment (FLSLIPKAIKAVGVKA-), minor, 1 min. Further, in the data set on trypsin [8], the cleaved bond entry was “Lys7-Ala8, major, 30 s” and the fragment found is 1–17 FLSLIPKAIKAVGVKAK, 4 min.

FLSLIPKAIKAVGVKAKKF-NH2 [PS-PT2a]: the fragment found in data set [7] is reported as 2–7 fragments (LSLIPK), minor, 4 h. Also, the not cleaved result in the data set with trypsin [8] was “stable in trypsin solution for up to 48 h”.

For FLSLIPKAIKAVGVKAKKF-NH2 [PS-PT2b], in data set [7], the fragment found is 1–17 (FLSLIPKAIKAVGVKAK), >48 h. The cleaved bond result in the data set with trypsin [8] was “Lys10-Ala11, 30 s”.
